From PMC3566115, “Interaction Domain of Glycoproteins gB and gH of Marek's Disease Virus and Identification of an Antiviral Peptide with Dual Functions” (PLoS ONE, 2013)
“And” between values parts separate entries of the source, which are not always exact repeats. Equal entries are not always repeated. “Also recorded” adds a separate entry of the source. Where two headings read alike, the source gives them in different places. Where no end group is shown, it is not given here.

Tests used:
MDV strain RB1B [1] = format: cell-based, Marek's disease virus; conditions: for IC50: plaque formation, CEF cells, co-treatment: 100 pfu MDV incubated with peptide 2 hrs at 37°C, then 5 days in DMEM 2% FBS, triplicate, means ± SD, read-out: antiviral activity IC50; for virucidal activity (in words): virus pre-treatment: virus incubated with peptide at 25 μM for 1 hr at 37°C, then titrated on cell monolayers
Description: Primary chicken embryo fibroblasts (CEFs) were cultured as previously described. CEF-associated MDV strain RB1B,which was obtained from the Shandong Agriculture University and passaged multiple times in primary CEFs was incubated for 2 hrs at 37°C. Following incubation, the virus inoculum on the cells was replaced with DMEM supplemented with 2% FBS, and the cultures were incubated for another 5 days longer Consistent and uniform plaques were observed and counted using an Olympus microscope, and images were captured using DP Controller. CEF-associated MDV from the same passage at 2×10^4 plaque forming units (pfu) was used in both infectivity assays in this study.
All peptides were dissolved in DMEM without FBS and used at a range of concentrations. For the antiviral activities of peptides in the co-treatment assay, 100 pfu of MDV was incubated with the peptide at different concentrations for 2 hrs at 37°C. Following incubation, the virus-peptide mixtures on the cells were replaced with DMEM supplemented with 2% FBS, and the cultures were incubated for 5 days. At the end of this period, 50% inhibitory concentrations (IC50) values were calculated. […] For all treatments, unpenetrated virus was inactivated in a low pH buffer after the 45 min incubation with cells at 37°C. The monolayers were incubated for 5 days at 37°C in DMEM supplemented with 2% FBS. The ratio of plaque counts to the no peptide sample control is reported as the percentage of plaque formation (by arithmetic conversion of the mean percent plaque formation). The results are expressed as the average of triplicates ± the standard deviation, and all experiments were performed in parallel with each peptide and a non-specific peptide (i.e., scramble).

[2] = individual peptides; previous study; cited from earlier work
Text: In addition, the gBH1 peptide forms a homotrimeric structure with a molecular weight of 10.7 kDa. gHH3 adopts a monomer formation with a molecular weight of 3.8 kDa, and gHH1 forms a homotetramer with a molecular weight of approximately 12.1 kDa. Gel filtration was used to confirm the interactions between peptides. […] As show ...

MDV strain RB1B [3] = conditions: cited from earlier work; for IC50: MDV plaque formation, previous study, read-out: 50% inhibitory concentration (IC50), plaque formation
Text: Our previous study reported that both glycoproteins gB and gH of the herpesvirus Marek's disease virus (MDV) contain eleven potential heptad repeat domains. […] HR1 and HR2 can form of a six-helix bundle structure, which is known as the virus fusion central core and is believed to bring the viral and cellular membranes closer together. […] This observation is in contrast with our results with MDV and other herpesviruses, [29], [33], in which three N-terminal HRs show ...

[4] = target: gH-derived HR3 peptide (gHH3) (Marek's disease virus strain RB1B)
[5] = target: gH-derived HR3 peptide (gHH3) (Marek's disease virus strain RB1B); test: SEC
[6] = target: gH-derived HR3 peptide (gHH3) (Marek's disease virus strain RB1B); test: SEC; remark: listed apart in the source
[7] = target: gB-derived HR1 peptide (gBH1) (Marek's disease virus strain RB1B); test: SEC
Sequence of gB-derived HR1 peptide (gBH1) (Marek's disease virus strain RB1B) (P18538 340-367 limits assumed): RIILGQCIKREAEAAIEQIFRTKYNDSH

Row | Molecule | IC50 (MDV strain RB1B [1]) [µM] | Molecular mass of individual peptide in solution by gel filtration [2] | Molecular state of individual peptide [2] | IC50 (MDV strain RB1B [3]) [µM] | further results
1 | NADIIKSLIRKTIINASKNTASLSILQHLYVLRS [gHH3] | 12.2 ± 0.28 | 3.8 kDa | Monomer | < 12 | virucidal activity (in words) (MDV strain RB1B [1]): no or low virucidal activity
2 | gB-derived HR1 peptide (gBH1) |  |  |  |  | antiviral activity IC50 (plaque formation, MDV on CEF cells) of the mixture of the three peptides gHH1+gHH3+gBH1, the same level as gHH1 alone [4]: 4.7 µM; stoichiometry N [5]: 3; stoichiometry N [6]: 1
3 | HMNASDMEIKSYINMIESVEESSNYDF [gHH1] | 4.1 ± 0.26 | approximately 12.1 kDa and 12.1 kDa | homotetramer; also recorded: Tetramer | < 12 | virucidal activity (in words) (MDV strain RB1B [1]): no or low virucidal activity; blocking of viral infection in co-treatment and post-treatment assays (in words) (MDV strain RB1B [3]; virus co-treatment (co) and post-treatment (post)): blocked viral infection
4 | CC[C@H](C)[C@H](NC(=O)[C@H](C)NC(=O)[C@H](C)NC(=O)[C@H](CCC(=O)O)NC(=O)[C@H](C)NC(=O)[C@H](CCC(=O)O)NC(=O)[C@H](CCCNC(=N)N)NC(=O)[C@H](CCCCN)NC(=O)[C@@H](NC(=O)[C@H](CS)NC(=O)[C@H](CCC(N)=O)NC(=O)CNC(=O)[C@H](CC(C)C)NC(=O)[C@@H](NC(=O)[C@@H](NC(=O)[C@@H](N)CCCNC(=N)N)[C@@H](C)CC)[C@@H](C)CC)[C@@H](C)CC)C(=O)N[C@@H](CCC(=O)O)C(=O)N[C@@H](CCC(N)=O)C(=O)N[C@H](C(=O)N[C@@H](Cc1ccccc1)C(=O)N[C@@H](CCCNC(=N)N)C(=O)N[C@H](C(=O)N[C@@H](CCCCN)C(=O)N[C@@H](Cc1ccc(O)cc1)C(=O)N[C@@H](CC(N)=O)C(=O)N[C@@H](CC(=O)O)C(=O)N[C@@H](CO)C(=O)N[C@@H](Cc1c[nH]cn1)C(=O)O)[C@@H](C)O)[C@@H](C)CC [gBH1] |  | 10.7 kDa | homotrimeric; also recorded: Trimer | < 12 | 
5 | KKNEEIIKKLEEKTKKNEEKNKKSEEILKKLEELRKK [gHH3-EK] | 6.3 ± 1.16 |  |  |  | 
6 | EERKKLGEEIKKEAEEAKKQIEETKKNDEE [gHB1-EK] | 8.7 ± 1.29 |  |  |  | 
7 | gH-derived HR1 peptide (gHH1) |  |  |  |  | stoichiometry N [5]: 1; stoichiometry N [7]: 1; stoichiometry N [6]: 3
